Several values for one entry are separate records, joined by “and”; a condition that tells them apart may be missing. Identical values can stand only once.

For the test, the target named is Human DGAT2 (Homo sapiens (Human), UniProt Q96PD7). Put plainly: DGAT2 Enzymatic Activity Assay (triolein formation, LC/MS/MS). It counts as biochemical. To be noted: hDGAT2 Sf-9 membrane prep; 25 μM diolein, 10 μM oleoyl-CoA; room temperature. The procedure, abridged: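 Membranes from Sf-9 cells infected with untagged hDGAT2 baculovirus, 10 ng/μL, at room temperature in 100 mM Tris.Cl pH 7.0, 20 mM MgCl2, 5% ethanol with 25 μM diolein and 10 μM oleoyl-CoA. Triolein quantified by LC/MS/MS against spiked internal standard; IC50 from 4-parameter sigmoidal fit.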
Chain of Human DGAT2 (Q96PD7 whole entry): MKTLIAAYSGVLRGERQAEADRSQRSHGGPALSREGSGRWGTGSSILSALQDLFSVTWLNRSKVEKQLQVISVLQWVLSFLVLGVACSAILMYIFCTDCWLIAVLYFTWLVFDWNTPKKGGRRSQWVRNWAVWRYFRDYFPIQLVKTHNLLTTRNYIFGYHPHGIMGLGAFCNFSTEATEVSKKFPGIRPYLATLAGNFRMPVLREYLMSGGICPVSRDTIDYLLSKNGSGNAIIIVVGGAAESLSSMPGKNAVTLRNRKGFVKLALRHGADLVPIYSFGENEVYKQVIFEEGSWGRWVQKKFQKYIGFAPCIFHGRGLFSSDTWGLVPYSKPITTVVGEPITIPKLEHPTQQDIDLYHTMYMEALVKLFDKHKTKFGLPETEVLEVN
For `CC1(NC(=O)c2ccc3c(-c4ccc5c(c4)OCO5)nn(-c4ccc(F)cc4)c3c2)CCS(=O)(=O)C1` (single isomer, unassigned) [Example 139-A, 3-(1,3-benzodioxol-5-yl)-1-(4-fluorophenyl)-N-(3-methyl-1,1-dioxidotetrahydrothiophen-3-yl)-1H-indazole-6-carboxamide], the IC50 is 229 nM and 158 nM.
The result for `CC(Cc1ccccn1)NC(=O)c1ccc2c(-c3ccccc3Cl)nn(-c3ccc(F)cc3)c2c1` (racemic) [Example 112, 3-(2-chlorophenyl)-1-(4-fluorophenyl)-N-(1-methyl-2-pyridin-2-ylethyl)-1H-indazole-6-carboxamide] reads 593 nM; that for `O=C(N[C@@H]1C[C@H](CO)[C@@H](O)[C@H]1O)c1ccc2c(-c3ccccc3Cl)nn(-c3ccc(F)cc3)c2c1` [Example 87, 3-(2-chlorophenyl)-N-[(1R,2S,3R,4R)-2,3-dihydroxy-4-(hydroxymethyl)cyclopentyl]-1-(4-fluorophenyl)-1H-indazole-6-carboxamide], 198 nM.
With `COc1ncc(Cl)cc1-c1nn(-c2ccc(F)cc2)c2cc(C(=O)NC3(C)CCS(=O)(=O)C3)ccc12` (single isomer, unassigned) [Example 142-A, 3-(5-chloro-2-methoxypyridin-3-yl)-1-(4-fluorophenyl)-N-(3-methyl-1,1-dioxidotetrahydrothiophen-3-yl)-1H-indazole-6-carboxamide] the figure was 430 nM; with `O=C(NC1CCS(=O)(=O)C1)c1ccc2c(-c3cccc(OC(F)F)c3)nn(-c3ccc(F)cc3)c2c1` (single isomer, unassigned) [Example 136-A, 3-[3-(difluoromethoxy)phenyl]-N-(1,1-dioxidotetrahydrothiophen-3-yl)-1-(4-fluorophenyl)-1H-indazole-6-carboxamide], 1.4 nM.
Compound `C[C@@H](CO)NC(=O)c1ccc2c(-c3ccccc3Cl)nn(-c3ccc(F)cc3)c2c1` [Example 68, 3-(2-chlorophenyl)-1-(4-fluorophenyl)-N-[(1S)-2-hydroxy-1-methylethyl]-1H-indazole-6-carboxamide] had an IC50 of 310 nM.
The result for `CC1(NC(=O)c2ccc3c(-c4ccccc4Cl)nn(-c4ccc(F)cc4)c3c2)CCS(=O)(=O)C1` (single isomer, unassigned) [Example 1-A, 3-(2-Chlorophenyl)-1-(4-fluorophenyl)-N-(3-methyl-1,1-dioxidotetrahydrothiophen-3-yl)-1H-indazole-6-carboxamide] reads 4.5 nM.
With `O=C(NC(CO)(CO)CO)c1ccc2c(-c3ccccc3Cl)nn(-c3ccc(F)cc3)c2c1` [Example 85, 3-(2-chlorophenyl)-1-(4-fluorophenyl)-N-[2-hydroxy-1,1-bis(hydroxymethyl)ethyl]-1H-indazole-6-carboxamide] the figure was 432 nM.
The compound `CC(C)(CO)NC(=O)c1ccc2c(-c3ccccc3Cl)nn(-c3ccc(F)cc3)c2c1` [Example 42, 3-(2-chlorophenyl)-1-(4-fluorophenyl)-N-(2-hydroxy-1,1-dimethylethyl)-1H-indazole-6-carboxamide] registered an IC50 of 26 nM.
The result for `O=C(NCCS(=O)(=O)Nc1cccnc1)c1ccc2c(-c3ccccc3Cl)nn(-c3ccc(F)cc3)c2c1` [Example 60, 3-(2-chlorophenyl)-1-(4-fluorophenyl)-N-[2-(pyridin-3-ylsulfamoyl)ethyl]-1H-indazole-6-carboxamide] reads 16 nM.
With `COC[C@H](NC(=O)c1ccc2c(-c3ccccc3Cl)nn(-c3ccc(F)cc3)c2c1)[C@@H](O)c1ccccc1` [Example 74, 3-(2-chlorophenyl)-1-(4-fluorophenyl)-N-[(1S,2S)-2-hydroxy-1-(methoxymethyl)-2-phenylethyl]-1H-indazole-6-carboxamide] the figure was 16 nM.
With `O=C(N[C@@H]1CCCC[C@H]1O)c1ccc2c(-c3ccccc3Cl)nn(-c3ccc(F)cc3)c2c1` (racemic) [Example 67] the figure was 40 nM.
Take `O=C(NC1(CO)CCOCC1)c1ccc2c(-c3ccccc3Cl)nn(-c3ccc(F)cc3)c2c1` [Example 47, 3-(2-chlorophenyl)-1-(4-fluorophenyl)-N-[4-(hydroxymethyl)tetrahydro-2H-pyran-4-yl]-1H-indazole-6-carboxamide]: the midpoint of inhibition, the IC50, lay at 47 nM.
As for `CC1(NC(=O)c2ccc3c(-c4cc(C(N)=O)ccc4Cl)nn(-c4ccc(F)cc4)c3c2)CCS(=O)(=O)C1` (single isomer, unassigned) [Example 121-A, 3-(5-carbamoyl-2-chlorophenyl)-1-(4-fluorophenyl)-N-(3-methyl-1,1-dioxidotetrahydrothiophen-3-yl)-1H-indazole-6-carboxamide], inhibition was half-maximal at 132 nM (IC50).
`CC1(NC(=O)c2ccc3c(-c4cccc(C#N)c4)nn(-c4ccc(F)cc4)c3c2)CCS(=O)(=O)C1` (single isomer, unassigned) [Example 117-B, 3-(3-cyanophenyl)-1-(4-fluorophenyl)-N-(3-methyl-1,1-dioxidotetrahydrothiophen-3-yl)-1H-indazole-6-carboxamide] registered an IC50 of 6.4 nM.
The result for `O=C(NCc1cnsn1)c1ccc2c(-c3ccccc3Cl)nn(-c3ccc(F)cc3)c2c1` [Example 40, 3-(2-chlorophenyl)-1-(4-fluorophenyl)-N-(1,2,5-thiadiazol-3-ylmethyl)-1H-indazole-6-carboxamide] reads 445 nM.
With `N#CC1(NC(=O)c2ccc3c(-c4ccccc4Cl)nn(-c4ccc(F)cc4)c3c2)CC1` [Example 105, 3-(2-chlorophenyl)-N-(1-cyanocyclopropyl)-1-(4-fluorophenyl)-1H-indazole-6-carboxamide] the figure was 139 nM.
`O=C(N[C@@H](CO)[C@@H](O)c1ccccc1)c1ccc2c(-c3ccccc3Cl)nn(-c3ccc(F)cc3)c2c1` [Example 80, 3-(2-chlorophenyl)-1-(4-fluorophenyl)-N-[(1S,2S)-2-hydroxy-1-(hydroxymethyl)-2-phenylethyl]-1H-indazole-6-carboxamide] gave an IC50 of 127 nM.
In turn, `CC1(NC(=O)c2ccc3c(-c4ccccc4Cl)nn(-c4nnc(C(C)(C)C)s4)c3c2)CCS(=O)(=O)C1` (racemic) [Example 183, 1-(5-tert-butyl-1,3,4-thiadiazol-2-yl)-3-(2-chlorophenyl)-N-(3-methyl-1,1-dioxidotetrahydrothiophen-3-yl)-1H-indazole-6-carboxamide] gave an IC50 of 460 nM.
The result for `C[C@H](CS(N)(=O)=O)NC(=O)c1ccc2c(-c3ccccc3Cl)nn(-c3ccc(F)cc3)c2c1` [Example 51, 3-(2-chlorophenyl)-1-(4-fluorophenyl)-N-[(1R)-1-methyl-2-sulfamoylethyl]-1H-indazole-6-carboxamide] reads 184 nM; that for `O=C(NCC1CCS(=O)(=O)C1)c1ccc2c(-c3ccccc3Cl)nn(-c3ccc(F)cc3)c2c1` (racemic) [Example 29, 3-(2-chlorophenyl)-N-[(1,1-dioxidotetrahydrothiophen-3-yl)methyl]-1-(4-fluorophenyl)-1H-indazole-6-carboxamide], 65 nM; that for `COc1cccc(-c2nn(-c3ccc(F)cc3)c3cc(C(=O)NC4(C)CCS(=O)(=O)C4)ccc23)c1` (single isomer, unassigned) [Example 144-A, 1-(4-fluorophenyl)-3-(3-methoxyphenyl)-N-(3-methyl-1,1-dioxidotetrahydrothiophen-3-yl)-1H-indazole-6-carboxamide], 5.8 nM.
With `O=C(NC1CCS(=O)(=O)C1)c1ccc2c(-c3ccccc3Cl)nn(-c3ccccn3)c2c1` (single isomer, unassigned) [Example 175-A, 3-(2-chlorophenyl)-N-(1,1-dioxidotetrahydrothiophen-3-yl)-1-pyridin-2-yl-1H-indazole-6-carboxamide] the figure was 338 nM; with `CC1(NC(=O)c2ccc3c(-c4cc(C#N)ccc4F)nn(-c4ccc(F)cc4)c3c2)CCS(=O)(=O)C1` (single isomer, unassigned) [Example 151-A, 3-(5-cyano-2-fluorophenyl)-1-(4-fluorophenyl)-N-(3-methyl-1,1-dioxidotetrahydrothiophen-3-yl)-1H-indazole-6-carboxamide], 4.5 nM; with `NS(=O)(=O)CCNC(=O)c1ccc2c(-c3ccccc3Cl)nn(-c3ccc(F)cc3)c2c1` [Example 20, 3-(2-chlorophenyl)-1-(4-fluorophenyl)-N-(2-sulfamoylethyl)-1H-indazole-6-carboxamide], 148 nM.
With `O=C(Nc1ccc(C(F)(F)F)nc1)c1ccc2c(-c3ccccc3Cl)nn(-c3ccc(F)cc3)c2c1` [Example 10, 3-(2-chlorophenyl)-1-(4-fluorophenyl)-N-[6-(trifluoromethyl)pyridin-3-yl]-1H-indazole-6-carboxamide] the figure was 608 nM; with `CC1(NC(=O)c2ccc3c(-c4ccccc4)nn(-c4ccc(F)cc4)c3c2)CCS(=O)(=O)C1` (single isomer, unassigned) [Example 162-A, 1-(4-fluorophenyl)-N-(3-methyl-1,1-dioxidotetrahydrothiophen-3-yl)-3-phenyl-1H-indazole-6-carboxamide], 157 nM; with `CC(C)(C)[C@@H](CO)NC(=O)c1ccc2c(-c3ccccc3Cl)nn(-c3ccc(F)cc3)c2c1` [Example 99, 3-(2-chlorophenyl)-1-(4-fluorophenyl)-N-[(1S)-1-(hydroxymethyl)-2,2-dimethylpropyl]-1H-indazole-6-carboxamide], 6.1 nM.
Consider `O=C(NC1CCS(=O)(=O)C1)c1ccc2c(-c3cccc(C4CC4)c3)nn(-c3ccc(F)cn3)c2c1` (single isomer, unassigned) [Example 126-A, 3-(3-cyclopropylphenyl)-N-(1,1-dioxidotetrahydrothiophen-3-yl)-1-(5-fluoropyridin-2-yl)-1H-indazole-6-carboxamide], for which the IC50 was found to be 11 nM.
In turn, `C[C@@H](NC(=O)c1ccc2c(-c3ccccc3Cl)nn(-c3ccc(F)cc3)c2c1)[C@@H](O)c1ccccc1` [Example 106, 3-(2-chlorophenyl)-1-(4-fluorophenyl)-N-[(1R,2S)-2-hydroxy-1-methyl-2-phenylethyl]-1H-indazole-6-carboxamide] registered an IC50 of 832 nM.

The term IC50 denotes the concentration that gives 50% inhibition. Read a low IC50 as higher potency.

These data come from patent publication US11104690B2, “Indazole derivatives useful as inhibitors of diacylglyceride O-acyltransferase 2” (Merck Sharp & Dohme Corp., priority 2016, dated 2021).
